In patent publication US7868013B2, “Cycloalkyl substituted pyrimidinediamine compounds and their uses” (Rigel Pharmaceuticals, Inc., priority 2004, dated 2011):
Where two headings read alike, the source gives them in different places.

What was measured:
[1] = system: H1299 (non-small cell lung carcinoma); assay: In vitro antiproliferation assay, H1299 cells (TABLE 1 6 point assay; TABLE 2); format: cell-based; conditions: Homo sapiens
Method: (§1) Certain compounds were tested against other cell types for their ability to inhibit proliferation in standard antiproliferation assays.

[2] = system: A549 (lung carcinoma); assay: In vitro antiproliferation assay, A549 cells (TABLE 1 6 point assay; TABLE 2); format: cell-based; conditions: Homo sapiens
Method: as §1

[3] = NCI-H1299, H1299 cells, 6 point assay, read-out: H1299, 6pt (IC50, inhibition of proliferation)
[4] = A549, A549 cells, 6 point assay, read-out: A549, 6pt (IC50, inhibition of proliferation)
[5] = NCI-H1299, 6 point assay, H1299 cells, read-out: IC50, H1299 cells
[6] = A549, 6 point assay, A549 cells, read-out: IC50, A549 cells

IC50 [1, 3] [nM]	IC50 [2, 4] [nM]	IC50 [1, 5] [nM]	IC50 [2, 6] [nM]	Compound
		≤ 100	≤ 100	Cc1cc(Nc2ncc(F)c(NC3C4C=CC(C4)C3C(N)=O)n2)ccc1O (racemic) [compound 250, Racemic-(2-exo,3-exo)-N4-(3-aminocarbonylbicyclo[2.2.1]hept-5-en-2-yl)-5-fluoro-N2-[(4-hydroxy-3-methyl)phenyl]-2,4-pyrimidinediamine]
		100 to 1000	≤ 100	NC(=O)C1C2C=CC(C2)C1Nc1nc(Nc2ccc(C3CCNCC3)cc2)ncc1F (racemic) [compound 264, Racemic-(2-exo,3-exo)-N4-(3-aminocarbonylbicyclo[2.2.1]hept-5-en-2-yl)-5-fluoro-N2-[4-(piperidin-4-yl)phenyl]-2,4-pyrimidinediamine]
		1000 to 10000	1000 to 10000	COC(=O)[C@H]1CCC[C@@H]1Nc1nc(Nc2ccc(N3CCN(C)CC3)c(C)c2)ncc1F [compound 208, (1S,2S)-5-fluoro-N4-(2-methoxycarbonylcyclopent-1-yl)-N2-[3-methyl-4-(4-methylpiperazino)phenyl]-2,4-pyrimidinediamine]
		1000 to 10000	1000 to 10000	Cc1cc(Nc2ncc(F)c(N[C@H]3C=C[C@@H](C(N)=O)C3)n2)ccc1N1CCN(C)CC1 [compound 226, (1R,4S)-cis-N4-(4-Aminocarbonylcyclopent-2-ene-1-yl)-5-fluoro-N2-[3-methyl-4-(4-methylpiperazin-1-yl)phenyl]-2,4-pyrimidinediamine]
		≤ 100	≤ 100	CN1CCC(c2cccc(Nc3ncc(F)c(N[C@H]4[C@@H](C(N)=O)[C@@H]5C=C[C@H]4C5)n3)c2)CC1 [compound 275, (1R,2R,3S,4S)-N4-(3-Aminocarbonylbicyclo[2.2.1]hept-5-en-2-yl)-5-fluoro-N2-[3-(1-methylpiperidin-4-yl)phenyl]-2,4-pyrimidinediamine]
		100 to 1000	100 to 1000	Cc1cc(Nc2ncc(F)c(N[C@H]3CCC[C@H]3C(N)=O)n2)ccc1N1CC(C)OC(C)C1 (mixture of isomers) [compound 283, Racemic-cis-N4-(2-aminocarbonylcyclopent-1-yl)-N2-[4-(2,6-dimethylmorpholino)-3-methyl]phenyl-5-fluoro-2,4-pyrimidinediamine]

The remaining lines, values behind:

Compound	IC50 [1, 3] [nM]	IC50 [2, 4] [nM]	IC50 [1, 5] [nM]	IC50 [2, 6] [nM]
Cc1cc(Nc2ncc(F)c(N[C@H]3[C@@H](C(N)=O)[C@@H]4C=C[C@H]3C4)n2)ccc1N(C1CC1)C1CCN(C)CC1 [compound 123, (1R,2R,3S,4S)-N4-(3-Aminocarbonylbicyclo[2.2.1]hept-5-en-2-yl)-5-fluoro-N2-{4-[N-cyclopropyl-(1-methylpiperidin-4-yl)]-3-methylphenyl}-2,4-pyrimidinediamine]	≤ 100	≤ 100		
CN(C)CCn1ccc2ccc(Nc3ncc(F)c(NC4C5C=CC(C5)C4C(N)=O)n3)cc21 (racemic) [compound 163, Racemic-(2-exo,3-exo)-N4-[3-aminocarbonylbicyclo[2.2.1]hept-5-en-2-yl)-N2-[1-(2-dimethylaminoethyl)indol-6-yl]-5-fluoro-2,4-pyrimidinediamine]	100 to 1000	100 to 1000		
Cc1cc(Nc2ncc(F)c(NC3C4C=CC(C4)C3C(N)=O)n2)ccc1N1CCNCC1 (racemic) [compound 108]	1000 to 10000	> 10000		
CN1CCc2cc(Nc3ncc(F)c(NC4C5C=CC(C5)C4C(N)=O)n3)ccc21 (racemic) [compound 174, Racemic-(2-exo,3-exo)-N4-[3-aminocarbonylbicyclo[2.2.1]hept-5-en-2-yl)-5-fluoro-N2-(1-methy-2,3-dihydrolindol-5-yl)-2,4-pyrimidinediamine]	100 to 1000	100 to 1000		
COc1ccc(C(C)NC(=O)[C@H]2[C@@H](Nc3nc(Nc4ccc(N5CCN(C)CC5)c(C)c4)ncc3F)[C@@H]3C=C[C@H]2C3)cc1 (stereo partly drawn) [compound 124, (1S,2S,3R,4R)-5-Fluoro-N4-(3-(R)-4-methoxy-alpha-methylbenzylaminocarbonylbicyclo[2.2.1]hept-5-en-2-yl]-N2-(3-methyl-4-(4-methylpiperazin-1-yl)phenyl]-2,4-pyrimidinediamine]	100 to 1000	100 to 1000		
